Holding throughout (test): NCI-60 cell line screen, 48 h
Assay [1] has as its system IGROV1 ovarian.
Assay [2] has as its system SNB-19 CNS.
The subject of assay [3] is UO-31 renal.
The subject of assay [4] is OVCAR-8 ovarian.
For assay [5], the system named is SK-MEL-28 melanoma.
The test system of assay [6] is SN12C renal.
Assay [7] relates to HOP-62 NSCLC.
Assay [8] concerns HCT-116 colon.
Assay [9] concerns TK-10 renal.
For assay [10], the system named is KM12 colon.

SMILES strings stand for the structures.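 Assay format: 96-well plates, 48-hour exposure. Here, GI50 denotes the concentration required for 50% inhibition of growth. The concentration for full growth arrest is given as TGI.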

As to `CC(C)(N)C(=O)N[C@@H]1C(=O)N2[C@@H]1SC(C)(C)[C@@H]2C(=O)O`, the TGI in assay [1], in assay [2], in [3], in assay [4], in assay [5] and in assay [6] was above 100 µM in each case. The TGI in assay [7], in [8], in [9] and in [10] was above 100 µM in each case.
Turning to `COc1ccc(Nc2ncccc2C(=O)NCc2cn(Cc3cccc(Oc4ccccc4)c3)nn2)c(OC)c1`, the GI50 was 5.18 µM in [1]; 3.64 µM in assay [2]; 5.54 µM in assay [3]; 3.81 µM in [4]; 5.27 µM in assay [5]; 3.51 µM in assay [6]. The GI50 in [7] was 5.58 µM; in assay [8] it was 1.66 µM; in assay [9], 13.8 µM; in [10] it was 1.11 µM. For the same compound, the TGI in assay [1], in assay [2], in assay [3], in assay [4], in assay [5] and in [6] was above 100 µM each time. In addition, the TGI in assay [7], in assay [8], in [9] and in assay [10] was above 100 µM throughout.
With `C=C1CCC2(C(C)=O)COC1(C)O2` (stereo not given), the TGI in [1], in assay [2], in assay [3], in [4], in assay [5] and in assay [6] was above 100 µM each time. The TGI in assay [7], in assay [8], in [9] and in assay [10] was above 100 µM each time.
Regarding `COc1cc([C@@H]2c3cc4c(cc3[C@@H](NC(=O)c3ccc(OC(C)=O)cc3)C3COC(=O)[C@@H]32)OCO4)cc(OC)c1O` (stereo not given in full), the TGI in [1] is 7.77 µM; in assay [2], above 100 µM; in [3], 30.6 µM; in assay [4], 18.5 µM; in assay [5], 23.5 µM; in [6], 4.05 µM. Besides, the TGI in [7] is 3.12 µM; in [8], 15.3 µM; in assay [9], 30.8 µM; in assay [10], 11.9 µM.
On to `CCN(CC)CCNC(=O)C(Cl)=C1C(Cl)=C(Cl)C(Cl)=C1Cl`, for which the GI50 in assay [1] is 3.19 µM; in assay [2], 10.9 µM; in assay [3], 6.88 µM; in [4], 2.81 µM; in assay [5], 2.45 µM; in assay [6] it was 4.03 µM. Also, the GI50 in [7] was 3.94 µM; in assay [8], 1.78 µM; in assay [9], 3.07 µM; in [10] it was 2.75 µM. Moreover, the TGI was above 100 µM in assay [1]; 29.6 µM in assay [2]; 26 µM in assay [3]; above 100 µM in assay [4]; 7.11 µM in assay [5]; 49.8 µM in assay [6]. Besides, the TGI in assay [7] was 15.5 µM; in assay [8], 4.4 µM; in assay [9] it was above 100 µM; in assay [10], 10.6 µM.
With `Cc1nc2cc(Nc3nc(Nc4ccc(F)cc4)nc(N4CCCC4)n3)ccc2n1Cc1ccccc1`, the GI50 in [1] was 1.9 µM; in assay [2] it was 3.4 µM; in [3], 1.51 µM; in assay [4], 2.15 µM; in assay [5], 1.88 µM; in [6], 1.84 µM. For the same compound, the GI50 in assay [7] was 1.74 µM; in assay [8], 1.66 µM; in assay [9], 1.89 µM; in [10] it was 1.86 µM. The TGI stood at 3.48 µM in assay [1]; 87.3 µM in [2]; 2.92 µM in [3]; 4.79 µM in assay [4]; 3.92 µM in assay [5]; 3.45 µM in assay [6]. For the same compound, the TGI stood at 3.45 µM in [7], 3.09 µM in [8], 3.37 µM in [9] and 3.51 µM in [10].
With `O=C1CCCCCCCCCCOC(=O)CCCCCCCCCCO1`, the TGI in assay [1], in [2], in assay [3], in [4], in assay [5] and in [6] was above 100 µM in each case. Further, the TGI in [7], in assay [8], in assay [9] and in assay [10] was above 100 µM each time.
As for `O=C1NC(Cc2ccccc2)C(=O)N2CCCC12` (stereo not given), the TGI in assay [1], in [2], in assay [3], in assay [4], in assay [5] and in assay [6] was above 100 µM throughout. In addition, the TGI in [7], in assay [8], in [9] and in assay [10] was above 100 µM throughout.
With `COC1/C=C/OC2(C)Oc3c(C)c(O)c4c(O)c(c(C=NOC(c5ccccc5)c5ccccc5)c(O)c4c3C2=O)NC(=O)/C(C)=C/C=C/C(C)C(O)C(C)C(O)C(C)C(OC(C)=O)C1C` (stereo not given), the GI50 in [1] was 1.72 µM; in assay [2], 1.89 µM; in [3] it was 1.65 µM; in [4] it was 1.56 µM; in assay [5], 0.959 µM; in [6], 1.31 µM. In addition, the GI50 in assay [7] is 0.916 µM; in assay [8] it was 0.97 µM; in assay [9], 1.14 µM; in assay [10], 0.992 µM. Further, the TGI in [1] amounted to 5.54 µM; in assay [2] it was 6.87 µM; in assay [3] it was 7.74 µM; in [4] it was 4.64 µM; in [5], 2.08 µM; in assay [6], 3.53 µM. In addition, the TGI in assay [7] was determined as 1.85 µM; in [8], 1.86 µM; in [9] it was 3.59 µM; in [10], 1.96 µM.

These data come from PubChem BioAssay (NCI).
